Source: patent publication JP2016199536A, “筋肉増強およびメタボリックシンドローム改善ならびにqol改善のための組成物” (NUTRITION ACT CO Ltd, priority 2015, dated 2016)

How the values were obtained:
myoblasts (筋芽細胞) = test: Myoblast differentiation promotion test, count of beating myotubes (Example 3); format: cell-based; conditions: 1 μM, 10 days after cell seeding, cells from ICR mouse fetal thigh muscle
[1] = Body fat reduction in high-fat-diet mice, epididymal fat weight (Example 4); format: in vivo, mouse; conditions: 10 weeks, C57BL/6J male mice, 6-compartment cage, high-fat diet with oleanolic acid or oleuropein 50 mg/kg diet, or Oleavita 1000 mg/kg diet
[2] = Plasma insulin concentration in high-fat-diet mice (Example 5); format: in vivo, mouse; conditions: 10 weeks, C57BL/6J male mice, 6-compartment cage, high-fat diet with oleanolic acid or oleuropein 50 mg/kg diet, or Oleavita 1000 mg/kg diet
[3] = Plasma leptin concentration in high-fat-diet mice (Example 5); format: in vivo, mouse; conditions: 10 weeks, C57BL/6J male mice, 6-compartment cage, high-fat diet with oleanolic acid or oleuropein 50 mg/kg diet, or Oleavita 1000 mg/kg diet

SMILES: C/C=C1/[C@H](O[C@@H]2O[C@H](CO)[C@@H](O)[C@H](O)[C@H]2O)OC=C(C(=O)OC)[C@H]1CC(=O)OCCc1ccc(O)c(O)c1 [オレウロペイン]
- beating myotube cells compared with control (myoblasts (筋芽細胞)): わずかに増加
- fat-reducing effect compared with high-fat diet group (HF) [1]: 脂肪減少効果が見られなかった
- suppression of plasma insulin concentration [2]: 抑制効果がなかった
- plasma leptin concentration [3]: 高値

SMILES: CC1(C)CC[C@]2(C(=O)O)CC[C@]3(C)C(=CC[C@@H]4[C@@]5(C)CC[C@H](O)C(C)(C)[C@@H]5CC[C@]43C)[C@@H]2C1 [オレアノール酸]
- beating myotube cells compared with control (myoblasts (筋芽細胞)): わずかに増加
- fat-reducing effect compared with high-fat diet group (HF) [1]: 脂肪減少効果が見られなかった
- suppression of plasma insulin concentration [2]: 抑制効果がなかった
- plasma leptin concentration [3]: 高値
